Patent US20220062240A1, “METHODS OF TREATING CANCER USING A CLK INHIBITOR” (BioSplice Therapeutics, Inc., priority 2018, published 2022)
pEC50: −log10 of the molar value. Read-outs that look alike come from different tables or passages of the source. One block for each compound: values may come before it.

What was measured:
BT-549 = assay: CellTiter-Glo Viability Assay, breast cancer; format: cell-based; conditions: Homo sapiens, 96 h; BT-549, breast cancer, four days; read-out: EC50
CAMA1 = assay: CellTiter-Glo Viability Assay, breast cancer; format: cell-based; conditions: Homo sapiens, CAMA-1, 96 h; CAMA1, breast cancer, four days; read-out: EC50
DU4475 = assay: CellTiter-Glo Viability Assay, breast cancer; format: cell-based; conditions: Homo sapiens, DU-4475, 96 h; DU4475, breast cancer, four days; read-out: EC50
HCC1599 = assay: CellTiter-Glo Viability Assay, breast cancer; format: cell-based; conditions: Homo sapiens, 96 h; HCC1599, breast cancer, four days; read-out: EC50
MCF7 = assay: CellTiter-Glo Viability Assay, breast cancer; format: cell-based; conditions: Homo sapiens, 96 h; MCF7, breast cancer, four days; read-out: EC50
MDA-MB-231-Luc = assay: CellTiter-Glo Viability Assay, breast cancer; format: cell-based; conditions: Homo sapiens, 96 h; MDA-MB-231-Luc, breast cancer, four days; read-out: EC50
T47D = assay: CellTiter-Glo Viability Assay, breast cancer; format: cell-based; conditions: Homo sapiens, 96 h, breast cancer, four days, read-out: EC50
ZR-75-1 = assay: CellTiter-Glo Viability Assay, breast cancer; format: cell-based; conditions: Homo sapiens, 96 h; ZR-75-1, breast cancer, four days; read-out: EC50
all 50 cell lines = assay: CellTiter-Glo Viability Assay, average across all cell lines; format: cell-based; conditions: Homo sapiens; across all 50 cell lines; read-out: average EC50 for inhibition of cancer cell proliferation
Method in brief: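 Cancer cell lines of several tumour types plated at 300-3,000 cells/well and exposed to compound in duplicate for four days at 37° C, 5% CO2, with DMSO-treated controls. Viability read by CellTiter-Glo luminescence (ATP content); EC50 derived from dose-response curves.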

[1] = system: colorectal cancer (6 cell lines); assay: CellTiter-Glo Viability Assay, colorectal cancer; format: cell-based; conditions: Homo sapiens, inhibition of cancer cell proliferation
[2] = system: haematopoietic & lymphoid tumors (13 cell lines); assay: CellTiter-Glo Viability Assay, haematopoietic & lymphoid tumors; format: cell-based; conditions: Homo sapiens, inhibition of cancer cell proliferation
[3] = system: liver cancer (3 cell lines); assay: CellTiter-Glo Viability Assay, liver cancer; format: cell-based; conditions: Homo sapiens, inhibition of cancer cell proliferation
[4] = system: lung cancer (4 cell lines); assay: CellTiter-Glo Viability Assay, lung cancer; format: cell-based; conditions: Homo sapiens, inhibition of cancer cell proliferation
[5] = system: ovarian cancer (4 cell lines); assay: CellTiter-Glo Viability Assay, ovarian cancer; format: cell-based; conditions: Homo sapiens, inhibition of cancer cell proliferation
[6] = system: pancreatic cancer (8 cell lines); assay: CellTiter-Glo Viability Assay, pancreatic cancer; format: cell-based; conditions: Homo sapiens, inhibition of cancer cell proliferation
[7] = system: prostate cancer (5 cell lines); assay: CellTiter-Glo Viability Assay, prostate cancer; format: cell-based; conditions: Homo sapiens
CLK2 = biological target: T1, CLK2 (Homo sapiens, UniProt P49760); assay: CLK2 kinase activity assay (Z-lyte, Ser/Thr 6 peptide); format: biochemical; conditions: recombinant CLK2 kinase, ATP 60 μM; read-out: EC50
T1 construct: purchased Thermo Fisher (Life Technologies), Z'-LYTE Kinase Assay Kits
T1 sequence (P49760 whole entry): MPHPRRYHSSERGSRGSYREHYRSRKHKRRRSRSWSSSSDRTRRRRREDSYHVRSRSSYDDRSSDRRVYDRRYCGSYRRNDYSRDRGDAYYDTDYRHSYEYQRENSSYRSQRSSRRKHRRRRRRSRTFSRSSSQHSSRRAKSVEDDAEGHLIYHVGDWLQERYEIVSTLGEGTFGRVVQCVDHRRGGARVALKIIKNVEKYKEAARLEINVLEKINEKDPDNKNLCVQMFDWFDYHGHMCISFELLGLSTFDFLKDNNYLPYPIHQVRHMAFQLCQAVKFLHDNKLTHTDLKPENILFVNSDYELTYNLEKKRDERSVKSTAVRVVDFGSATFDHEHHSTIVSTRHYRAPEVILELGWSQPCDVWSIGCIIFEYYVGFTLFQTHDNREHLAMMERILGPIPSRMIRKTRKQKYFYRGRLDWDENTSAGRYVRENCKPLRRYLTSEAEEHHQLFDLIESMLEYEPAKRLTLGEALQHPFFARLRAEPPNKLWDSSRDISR
Procedure: All reactions were performed in duplicate.

[8] = HCT-116, HCT116 cell line, read-out: Colorectal cancer, EC50 (μM) HCT116
[9] = HT-29, HT29 cell line, read-out: Colorectal cancer, EC50 (μM) HT29
[10] = SW-620, SW620 cell line, read-out: Colorectal cancer, EC50 (μM) SW620
[11] = DLD-1 cell line, read-out: Colorectal cancer, EC50 (μM) DLD-1
[12] = SW48 cell line, read-out: Colorectal cancer, EC50 (μM) SW48
[13] = SW480 cell line, read-out: Colorectal cancer, EC50 (μM) SW480
[14] = DND41, DND-41 cell line, read-out: Haematopoietic & Lymphoid tumors, EC50 (μM) DND-41
[15] = MV4-11, MV-4-11 cell line, read-out: Haematopoietic & Lymphoid tumors, EC50 (μM) MV-4-11
[16] = Rec1, REC-1 cell line, read-out: Haematopoietic & Lymphoid tumors, EC50 (μM) REC-1
[17] = SU-DHL-4, SUDHL4 cell line, read-out: Haematopoietic & Lymphoid tumors, EC50 (μM) SUDHL4
[18] = HL-60 cell line, read-out: Haematopoietic & Lymphoid tumors, EC50 (μM) HL-60
[19] = JM1 cell line, read-out: Haematopoietic & Lymphoid tumors, EC50 (μM) JM1
[20] = JURKAT, Clone E6-1 cell line, read-out: Haematopoietic & Lymphoid tumors, EC50 (μM) JURKAT, Clone E6-1
[21] = JeKo-1 cell line, read-out: Haematopoietic & Lymphoid tumors, EC50 (μM) JeKo-1
[22] = KASUMI-1 cell line, read-out: Haematopoietic & Lymphoid tumors, EC50 (μM) KASUMI-1
[23] = Loucy cell line, read-out: Haematopoietic & Lymphoid tumors, EC50 (μM) Loucy
[24] = MOLT-4 cell line, read-out: Haematopoietic & Lymphoid tumors, EC50 (μM) MOLT-4
[25] = TF-1 cell line, read-out: Haematopoietic & Lymphoid tumors, EC50 (μM) TF-1
[26] = TOLEDO cell line, read-out: Haematopoietic & Lymphoid tumors, EC50 (μM) TOLEDO
[27] = SNU-398, SNU398 cell line, read-out: Liver cancer, EC50 SNU398
[28] = HEPG2 cell line, read-out: Liver cancer, EC50 HEPG2
[29] = PLC/PRF/5 cell line, read-out: Liver cancer, EC50 PLC/PRF/5
[30] = A-427, A427 cell line, read-out: Lung cancer, EC50 (μM) A427
[31] = HCC78, HCC-78 cell line, read-out: Lung cancer, EC50 (μM) HCC-78
[32] = NCI-H460 cell line, read-out: Lung cancer, EC50 (μM) NCI-H460
[33] = NCI-H522 cell line, read-out: Lung cancer, EC50 (μM) NCI-H522
[34] = PA-1, PA1 cell line, read-out: Ovarian cancer, EC50 (μM) PA1
[35] = TOV112D, TOV-112D cell line, read-out: Ovarian cancer, EC50 (μM) TOV-112D
[36] = OV-90 cell line, read-out: Ovarian cancer, EC50 (μM) OV-90
[37] = OVCAR-3 cell line, read-out: Ovarian cancer, EC50 (μM) OVCAR-3
[38] = DU-145, read-out: Prostate cancer EC50 Du-145
[39] = PC-3, PC3 cell line, inhibition of cancer cell proliferation, read-out: Prostate cancer EC50 PC3
[40] = 22Rv1 cell line, inhibition of cancer cell proliferation, read-out: Prostate cancer EC50 22Rv1
[41] = LNCap clone FGC cell line, inhibition of cancer cell proliferation, read-out: Prostate cancer EC50 LNCap clone FGC
[42] = VCaP (Sigma) cell line, inhibition of cancer cell proliferation, read-out: Prostate cancer EC50 VCaP (Sigma)

pEC50 (BT-549): 7.12
pEC50 (CAMA1): 6.78
pEC50 (DU4475): 7.24
pEC50 (HCC1599): 7.07
pEC50 (MCF7): 6.10
pEC50 (MDA-MB-231-Luc): 6.82
pEC50 (T47D): 6.78
pEC50 (ZR-75-1): 6.84
EC50 [1, 8]: 0.056 µM
EC50 [1, 9]: 1.28 µM
EC50 [1, 10]: 0.041 µM
EC50 [1, 11]: 0.136 µM
EC50 [1, 12]: 0.049 µM
EC50 [1, 13]: 0.042 µM
EC50 [2, 14]: 0.031 µM
EC50 [2, 15]: 0.005 µM
EC50 [2, 16]: 0.109 µM
EC50 [2, 17]: 0.036 µM
EC50 [2, 18]: 0.121 µM
EC50 [2, 19]: 0.026 µM
EC50 [2, 20]: 0.17 µM
EC50 [2, 21]: 0.017 µM
EC50 [2, 22]: 0.058 µM
EC50 [2, 23]: 0.041 µM
EC50 [2, 24]: 0.254 µM
EC50 [2, 25]: 0.108 µM
EC50 [2, 26]: 0.022 µM
pEC50 [3, 27]: 7.68
pEC50 [3, 28]: 6.42
pEC50 [3, 29]: 5.75
EC50 [4, 30]: 0.04 µM
EC50 [4, 31]: 0.225 µM
EC50 [4, 32]: > 3.5 µM
EC50 [4, 33]: 0.04 µM
EC50 [5, 34]: 0.147 µM
EC50 [5, 35]: 0.065 µM
EC50 [5, 36]: 0.532 µM
EC50 [5, 37]: 0.037 µM
pEC50 ([6]; BXPC-3, BxPC3 cell line, read-out: Pancreatic cancer, EC50 BxPC3): 6.44
pEC50 ([6]; CAPAN-1, Capan1 cell line, read-out: Pancreatic cancer, EC50 Capan1): 6.24
pEC50 ([6]; Capan-2, Capan2 cell line, read-out: Pancreatic cancer, EC50 Capan2): 7.03
pEC50 ([6]; MIA PaCa-2 cell line, read-out: Pancreatic cancer, EC50 MIA PaCa-2): 7.39
pEC50 ([6]; PANC 05.04 cell line, read-out: Pancreatic cancer, EC50 PANC 05.04): 6.34
pEC50 ([6]; PANC-1 cell line, read-out: Pancreatic cancer, EC50 PANC-1): 5.57
pEC50 ([6]; UPAFII cell line, read-out: Pancreatic cancer, EC50 UPAFII): 6.59
pEC50 [7, 38]: 7.01
pEC50 [7, 39]: 7.26
pEC50 [7, 40]: 6.93
pEC50 [7, 41]: 6.63
pEC50 [7, 42]: 6.79
Structure (SMILES): c1cc2cc(c1)-c1cncc3[nH]c(nc13)-c1n[nH]c3ccc(cc13)-c1cncc(c1)CNC2 [Compound 54]
pEC50 (all 50 cell lines): 6.34

pEC50 (CLK2): 8.72
pEC50 (BT-549): 6.46
pEC50 (CAMA1): 6.16
pEC50 (DU4475): 6.52
pEC50 (HCC1599): 6.77
pEC50 (MCF7): 5.72
pEC50 (MDA-MB-231-Luc): 6.12
pEC50 (T47D): 6.00
pEC50 (ZR-75-1): 6.01
EC50 [1, 8]: 0.239 µM
EC50 [1, 9]: 0.52 µM
EC50 [1, 10]: 0.163 µM
EC50 [1, 11]: 0.215 µM
EC50 [1, 12]: 0.151 µM
EC50 [1, 13]: 0.313 µM
EC50 [2, 14]: 0.491 µM
EC50 [2, 15]: 0.076 µM
EC50 [2, 16]: 0.134 µM
EC50 [2, 17]: 0.376 µM
EC50 [2, 18]: 0.76 µM
EC50 [2, 19]: 0.135 µM
EC50 [2, 20]: 0.464 µM
EC50 [2, 21]: 0.157 µM
EC50 [2, 22]: 0.203 µM
EC50 [2, 23]: 0.241 µM
EC50 [2, 24]: 0.465 µM
EC50 [2, 25]: 0.673 µM
EC50 [2, 26]: 0.134 µM
pEC50 [3, 27]: 6.92
pEC50 [3, 28]: 6.15
pEC50 [3, 29]: 5.96
EC50 [4, 30]: 0.355 µM
EC50 [4, 31]: 0.835 µM
EC50 [4, 32]: 0.574 µM
EC50 [4, 33]: 0.188 µM
EC50 [5, 34]: 0.495 µM
EC50 [5, 35]: 0.229 µM
EC50 [5, 36]: 1.49 µM
EC50 [5, 37]: 0.195 µM
pEC50 [7, 38]: 6.26
pEC50 [7, 39]: 6.36
pEC50 [7, 40]: 6.46
pEC50 [7, 41]: 6.23
pEC50 [7, 42]: 6.08
Structure (SMILES): Cn1cc(-c2ccc3cnc(NC(=O)c4ccc5c(c4)CNCC5)cc3c2)cn1 [Compound 74]
pEC50 (all 50 cell lines): 6.30
